Assay results taken from patent US12053506B2, “Romo1-derived antimicrobial peptides and variants thereof” (priority 2019, dated 2024).
No end group written: not given here.

Tests used:
[1] = system: Pseudomonas aeruginosa (ATCC 27853); format: cell-based; settings: for MBC Pseudomonas aeruginosa: Tables 11-15, no unit printed; for MBC value (μg/ml) against Pseudomonas aeruginosa: ATCC 27853, 1 h
From the text: (§1) Romo1 protein comprises two α-helices. The present inventors synthesized the α-helix 2 region having both hydrophilicity and hydrophobicity, and evaluated the antibacterial activity thereof using minimum bactericidal concentration (MBC) assay. The α-helix 2 region was named KU-5279 (the 52-79 amino acid region of Romo1 protein). Then, in order to identify peptides that are beneficial for human application and have excellent antibacterial activity, the present inventors synthesized several peptides comprising a sequence of contiguous amino acids starting at any amino acid selected from the 52-79 amino acid region of Romo1 protein, and comparatively evaluated the antibacterial activities of the peptides by minimum bactericidal concentration assay (See Table 1 below for information on each peptide). Evaluation of the antibacterial activity of each peptide by minimum bactericidal concentration assay was specifically performed as follows. First, each of Pseudomonas aeruginosa (ATCC 27853) and Staphylococcus aureus (ATCC 29213) was cultured in 3% (w/v) TSB (Tryptic Soy Broth) liquid medium at 37° C. and 200 rpm for 4 hours, and then further cultured under the same conditions for 3 hours to a concentration of 5×10^6 CFU/ml. Strain solutions were prepared by diluting each of the further cultured strains with SP (sodium phosphate; 10 mM sodium phosphate, 1% TSB) buffer to a final concentration of 2×10^5 CFU/ml. Then, each peptide at varying concentrations (0 μg/ml to 300 μg/ml) was dispensed into each well of a 96-well microplate, and 100 μl (1×10^5 CFU/ml) of each of the prepared strain solutions was added thereto, mixed therewith, and allowed to react with the peptide in an incubator at 37° C. for 1 hour. In addition, 30 g/L of TS (tryptic soy) and 15 g/L of agar were dissolved in distilled water and sterilized, and then 25 ml of the solution was poured onto a 100 mm round plate and solidified at room temperature for one day or more, thereby preparing a TS agar plate. 10 μl of each reaction solution of the peptide and the strain was plated on the TS agar plate at a constant size, and incubated in an incubator at 37° C. for 18 hours, and then colony formation on the plate was checked. The minimum bactericidal concentration was defined as the minimum concentration of the peptide at which no colony was formed, and the experimental results are shown in Table 1 below.

[2] = system: Staphylococcus aureus (ATCC 29213); format: cell-based; settings: for MBC Staphylococcus aureus: Tables 11-15, no unit printed; for MBC value (μg/ml) against Staphylococcus aureus: ATCC 29213, 1 h
From the text: as §1

[3] = system: methicillin-resistant Staphylococcus aureus (ATCC 33591); settings: Tables 11-15, no unit printed
Description: First, each of Pseudomonas aeruginosa (ATCC 27853) and Staphylococcus aureus (ATCC 29213) was cultured in 3% (w/v) TSB (Tryptic Soy Broth) liquid medium at 37° C. and 200 rpm for 4 hours, and then further cultured under the same conditions for 3 hours to a concentration of 5×10^6 CFU/ml. Strain solutions were prepared by diluting each of the further cultured strains with SP (sodium phosphate; 10 mM sodium phosphate, 1% TSB) buffer to a final concentration of 2×10^5 CFU/ml.
Then, each peptide at varying concentrations (0 μg/ml to 300 μg/ml) was dispensed into each well of a 96-well microplate, and 100 μl (1×10^5 CFU/ml) of each of the prepared strain solutions was added thereto, mixed therewith, and allowed to react with the peptide in an incubator at 37° C. for 1 hour.
In addition, 30 g/L of TS (tryptic soy) and 15 g/L of agar were dissolved in distilled water and sterilized, and then 25 ml of the solution was poured onto a 100 mm round plate and solidified at room temperature for one day or more, thereby preparing a TS agar plate. 10 μl of each reaction solution of the peptide and the strain was plated on the TS agar plate at a constant size, and incubated in an incubator at 37° C. for 18 hours, and then colony formation on the plate was checked.
Specifically, each type of bacteria was cultured in 3% (w/v) TSB (Tryptic Soy Broth) liquid medium at 37° C. and 200 rpm for 4 hours, and then further cultured under the same conditions for 3 hours to a concentration of 5×10^6 CFU/ml. Strain solutions were prepared by diluting each of the […] of 2×10^5 CFU/ml.
Then, the KU-5878 peptide at varying concentrations (0 μg/ml to 300 μg/ml) was dispensed into each well of a 96-well microplate, and 100 μl (1×10^5 CFU/ml) of each of the prepared strain solutions was added thereto, mixed therewith, and allowed to react with the peptide in an incubator at 37° C. for 1 hour.
In addition, 10 μl of each reaction solution of the peptide and the strain was plated on the TS agar plate at a constant size, and incubated in an incubator at 37° C. for 18 hours, and then colony formation on the plate was checked.

CRPA = experiment: MBC, evaluation of antibacterial activities of KU-5878 variants; format: cell-based; settings: Tables 11-15, no unit printed
Description: Variants were prepared by deleting one amino acid from the amino acid sequence of KU-5878 (SEQ ID NO: 13), and the antibacterial activities thereof were evaluated.
Variants were prepared by deleting two or more amino acids from the amino acid sequence of KU-5878 (SEQ ID NO: 13), and the antibacterial activities thereof were evaluated.
One amino acid in the amino acid sequence of KU-5878 (SEQ ID NO: 13) was substituted, and the antibacterial activities of the peptides were evaluated.
Substitutions of Q62K, S63K and T66K were sequentially added to the amino acid sequence of KU-5878-T59K, and the antibacterial activities of the peptides were evaluated.
An amino acid repeat sequence was added to the C-terminus of KU-5878, and the antibacterial activities of the peptides were evaluated. According to Table 15 below, when the R (arginine) repeat sequence or K (lysine) sequence was added to the C-terminus of KU-5878, the antibacterial activity of the peptide increased.

| Substance | MBC Pseudomonas aeruginosa [1] [µg/mL] | MBC Staphylococcus aureus [2] [µg/mL] | MBC MRSA [3] [µg/mL] | MBC CRPA (CRPA) [µg/mL] | MBC value (μg/ml) against Pseudomonas aeruginosa [1] [µg/mL] | MBC value (μg/ml) against Staphylococcus aureus [2] [µg/mL] |
| --- | --- | --- | --- | --- | --- | --- |
| KTMMQSGGTFGTFMAI-MGIR [Peptide 5878-d74G] | 20 | 25 | 25 | 30 | – | – |
| KTMMQSGGTFGTFMAIG-GIR [Peptide 5878-d75M] | 100 | 100 | 110 | 100 | – | – |
| KTMMQSGGTFGTFMAIGM-IR [Peptide 5878-d76G] | 80 | 70 | 90 | 90 | – | – |
| KTMMQSGGTFGTFMAIGMAIR [KU-5878-G76A] | > 300 | > 300 | > 300 | > 300 | >400 | >400 |
| KTMMQSGGTFGTFMAIGMG-R [Peptide 5878-d77I] | > 300 | > 300 | > 300 | > 300 | – | – |
| KTMMQSGGTFGTFMAIGMGAR [KU-5878-I77A] | > 300 | > 300 | > 300 | > 300 | >300 | >300 |
| KTMMQSGGTFGTFMAIGMGGR [KU-5878-I77G] | 80 | 90 | 90 | 100 | 80 | 90 |
| KTMMQSGGTFGTFMAIGMGI- [Peptide 5878-d78R] | 300 | 300 | > 300 | > 300 | – | – |
| KTMMQSGGTFGTFMAIGMGIRKK [Peptide 5878-KK] | 15 | 16 | 16 | 16 | – | – |
| KTMMQSGGTFGTFMAIGMGIRQ [Peptide 5878-Q] | 150 | 180 | 180 | 180 | – | – |
| KTMMQSGGTFGTFMAIGMGIRRRR [Peptide 5878-3R] | 8 | 8 | 10 | 8 | – | – |
| KTMMQSGGTFGTFMAIGMGKR [KU-5878-I77K] | > 300 | > 300 | > 300 | > 300 | >300 | >300 |
| KTMMQSGGTFGTFMAIGMGTR [KU-5878-I77T] | > 300 | > 300 | > 300 | > 300 | >300 | >300 |
| KTMMQSGGTFGTFMAKGMGIR [KU-5878-I73K] | > 300 | > 300 | > 300 | > 300 | >300 | >300 |
| KTMMQSGGTFGTFMAWGMGIR [KU-5878-I73W] | 300 | 300 | > 300 | 300 | 300 | 300 |
| KTMMQSGGTFGTFMGIGMGIR [KU-5878-A72G] | > 300 | > 300 | > 300 | > 300 | 350 | 350 |
| KTMMQSGGTFGTKMAIGMGIR [KU-5878-F70K] | > 300 | > 300 | > 300 | > 300 | >300 | >300 |
| KTMMQSGGTFGTWMAIGMGIR [KU-5878-F70W] | 300 | 300 | > 300 | 300 | 300 | 300 |
| KTMMQSGGTWGTFMAIGMGIR [KU-5878-F67W] | 80 | 80 | 90 | 80 | 80 | 80 |
| KTMMQTGGTFGTFMAIGMGIR [KU-5878-S63T] | > 300 | > 300 | > 300 | > 300 | – | – |
| KTMMRSGGTFGTFMAIGMGIR [KU-5878-Q62R] | 80 | 80 | 90 | 80 | – | – |
| KTMMSSGGTFGTFMAIGMGIR [KU-5878-Q62S] | > 300 | > 300 | > 300 | > 300 | – | – |
